# Measured values as given in patent publication US20030104507A1, “Method for detection of ATP” (priority 2001, published 2003).
# Assays:
# LucPpy = target: T1, LucPpy (Photinus pyralis, UniProt P08659); assay: Stability of reagent composition with LucPpy and detergent (RT, pH 7.0); format: biochemical; settings: for Average Relative Light Units / Percent of Luminescence Remaining: LucPpy
# T1 construct: purchased Promega E170A
# Source text: (§1) The detergents used for inhibition of endogenous ATPase activity in a sample also affect activity of luciferase. […] It is ultimately the extended stability of a reagent composition, comprising an ATPase inhibitor and a luciferase enzyme, which provides a composition useful for measuring ATP, in a sample or samples, over an extended period of time.
# (§2) In this experiment, the stability of a reagent composition comprising wild type LucPpy was compared to the stability of a reagent composition comprising LucPpe2m146 at about 23° C. (room temperature). The various reagent compositions had varying detergent concentrations.
# (§3) Two solutions were created as listed below. One contained the luciferase, luciferin, MgSO4, and buffer (reagent composition). The other solution contained media plus ATP (media solution).
# (§4) 50 μg/ml enzyme (LucPpy is Promega catalog #E170A)
# (§5) Detergent (at various concentrations, see table below)
# (§6) For each reagent composition, all ingredients except the luciferase enzyme were assembled; the enzyme was then added immediately before the first luminescence reading was taken. Immediately after addition of enzyme to each reagent composition and for various timepoints thereafter, 100 μl aliquots of the reagent composition were added to wells of a 96-well microtitre luminometer plate in triplicate. To these were added 100 μl Media Solution containing the ATP. Luminescence was then immediately read on a Dynex MLX microtitreplate luminometer, 0.5 second reads per well. The average relative light unit values as well as the reaction half lives are listed below in Table I and the percent of original luminescence remaining at each timepoint is listed in Table J below. The timepoint at the top of the column indicates the time at which the first rlu measurement for the samples in that column was read. […] Times listed in Table I are the same for Table J. The values for sulfobetaine and for CTAB were generated on different days, they are presented with the control values generated in the same experiment.
# LucPpe2m146 = assay: Stability of reagent composition with LucPpe2m146 and detergent (RT, pH 7.0); format: biochemical, Photuris pennsylvanica
# Source text: as §1, §2, §3, §4, §5, §6
smiles,measurement,setting,value
"CCCCCCCCCCCC[N+](C)(C)C.[Br-] [DTAB, dodecyltrimethylammonium bromide]",Half-life of Luminescence Activity,"LucPpy; Common firefly luciferase (P. pyralis), conc. 0.500",no activity
same,Average Relative Light Units,"LucPpy; 0.02%, 0.75 min (head r32)",4513.320 rlu
same,Percent of Luminescence Remaining,"LucPpy; 0.02%, 0.75 min (times of Table I r32)",100.00%
same,Average Relative Light Units,"LucPpy; 0.02%, 38 min (head r32)",3761.940 rlu
same,Percent of Luminescence Remaining,"LucPpy; 0.02%, 38 min (times of Table I r32)",99.53%
same,Average Relative Light Units,"LucPpy; 0.02%, 70 min (head r32)",3363.410 rlu
same,Percent of Luminescence Remaining,"LucPpy; 0.02%, 70 min (times of Table I r32)",74.52%
same,Average Relative Light Units,"LucPpy; 0.02%, 94 min (head r32)",3229.340 rlu
same,Percent of Luminescence Remaining,"LucPpy; 0.02%, 94 min (times of Table I r32)",71.55%
same,Average Relative Light Units,"LucPpy; 0.02%, 122 min (head r32)",3082.030 rlu
same,Percent of Luminescence Remaining,"LucPpy; 0.02%, 122 min (times of Table I r32)",68.2%
same,Average Relative Light Units,"LucPpy; 0.1%, 0.75 min (head r18)",0.307 rlu
same,Percent of Luminescence Remaining,"LucPpy; 0.1%, 0.75 min (times of Table I r18)",100.00%
same,Average Relative Light Units,"LucPpy; 0.1%, 10 min (head r18)",0.009 rlu
same,Percent of Luminescence Remaining,"LucPpy; 0.1%, 10 min (times of Table I r18)",2.93%
same,Average Relative Light Units,"LucPpy; 0.1%, 36 min (head r18)",0.005 rlu
same,Percent of Luminescence Remaining,"LucPpy; 0.1%, 36 min (times of Table I r18)",1.55%
same,Average Relative Light Units,"LucPpy; 0.5%, 0.75 min (head r5)",0.018 rlu
same,Percent of Luminescence Remaining,"LucPpy; 0.5%, 0.75 min (times of Table I r5)",100.00%
same,Average Relative Light Units,"LucPpe2m146; LucPpe2m146, 0.02%, 1.0 min (head r67)",28730.17 rlu
same,Percent of Luminescence Remaining,"LucPpe2m146; LucPpe2m146, 0.02%, 1.0 min (times of Table I r67)",100.00%
same,Average Relative Light Units,"LucPpe2m146; LucPpe2m146, 0.02%, 34 min (head r67)",28596.30 rlu
same,Percent of Luminescence Remaining,"LucPpe2m146; LucPpe2m146, 0.02%, 34 min (times of Table I r67)",99.53%
same,Average Relative Light Units,"LucPpe2m146; LucPpe2m146, 0.02%, 65 min (head r67)",28651.97 rlu
same,Percent of Luminescence Remaining,"LucPpe2m146; LucPpe2m146, 0.02%, 65 min (times of Table I r67)",99.73%
same,Average Relative Light Units,"LucPpe2m146; LucPpe2m146, 0.02%, 115 min (head r67)",26062.30 rlu
same,Percent of Luminescence Remaining,"LucPpe2m146; LucPpe2m146, 0.02%, 115 min (times of Table I r67)",90.71%
same,Average Relative Light Units,"LucPpe2m146; LucPpe2m146, 0.02%, 175 min (head r67)",27941.73 rlu
same,Percent of Luminescence Remaining,"LucPpe2m146; LucPpe2m146, 0.02%, 175 min (times of Table I r67)",97.26%
same,Average Relative Light Units,"LucPpe2m146; LucPpe2m146, 0.02%, 238 min (head r67)",27677.9 rlu
same,Percent of Luminescence Remaining,"LucPpe2m146; LucPpe2m146, 0.02%, 238 min (times of Table I r67)",96.34%
same,Average Relative Light Units,"LucPpe2m146; LucPpe2m146, 0.02%, 286 min (head r67)",27808.3 rlu
same,Percent of Luminescence Remaining,"LucPpe2m146; LucPpe2m146, 0.02%, 286 min (times of Table I r67)",96.79%
same,Average Relative Light Units,"LucPpe2m146; LucPpe2m146, 0.1%, 1.0 min (head r54)",20132.47 rlu
same,Percent of Luminescence Remaining,"LucPpe2m146; LucPpe2m146, 0.1%, 1.0 min (times of Table I r54)",100.00%
same,Average Relative Light Units,"LucPpe2m146; LucPpe2m146, 0.1%, 34 min (head r54)",20574.63 rlu
same,Percent of Luminescence Remaining,"LucPpe2m146; LucPpe2m146, 0.1%, 34 min (times of Table I r54)",102.20%
same,Average Relative Light Units,"LucPpe2m146; LucPpe2m146, 0.1%, 65 min (head r54)",20800.80 rlu
same,Percent of Luminescence Remaining,"LucPpe2m146; LucPpe2m146, 0.1%, 65 min (times of Table I r54)",103.32%
same,Average Relative Light Units,"LucPpe2m146; LucPpe2m146, 0.1%, 115 min (head r54)",19908.30 rlu
same,Percent of Luminescence Remaining,"LucPpe2m146; LucPpe2m146, 0.1%, 115 min (times of Table I r54)",98.89%
same,Average Relative Light Units,"LucPpe2m146; LucPpe2m146, 0.1%, 175 min (head r54)",20760.93 rlu
same,Percent of Luminescence Remaining,"LucPpe2m146; LucPpe2m146, 0.1%, 175 min (times of Table I r54)",103.12%
same,Average Relative Light Units,"LucPpe2m146; LucPpe2m146, 0.1%, 238 min (head r54)",19758.4 rlu
same,Percent of Luminescence Remaining,"LucPpe2m146; LucPpe2m146, 0.1%, 238 min (times of Table I r54)",98.14%
same,Average Relative Light Units,"LucPpe2m146; LucPpe2m146, 0.1%, 286 min (head r54)",19659.10 rlu
same,Percent of Luminescence Remaining,"LucPpe2m146; LucPpe2m146, 0.1%, 286 min (times of Table I r54)",97.65%
same,Average Relative Light Units,"LucPpe2m146; LucPpe2m146, 0.5%, 15 min (head r41)",5.496 rlu
same,Percent of Luminescence Remaining,"LucPpe2m146; LucPpe2m146, 0.5%, 15 min (times of Table I r41)",100.00%
same,Average Relative Light Units,"LucPpe2m146; LucPpe2m146, 0.5%, 72 min (head r41)",3.141 rlu
same,Percent of Luminescence Remaining,"LucPpe2m146; LucPpe2m146, 0.5%, 72 min (times of Table I r41)",57.16%
same,Average Relative Light Units,"LucPpe2m146; LucPpe2m146, 0.5%, 124 min (head r41)",2.769 rlu
same,Percent of Luminescence Remaining,"LucPpe2m146; LucPpe2m146, 0.5%, 124 min (times of Table I r41)",50.39%
same,Average Relative Light Units,"LucPpe2m146; LucPpe2m146, 0.5%, 190 min (head r41)",2.563 rlu
same,Percent of Luminescence Remaining,"LucPpe2m146; LucPpe2m146, 0.5%, 190 min (times of Table I r41)",46.64%
same,Average Relative Light Units,"LucPpe2m146; LucPpe2m146, 0.5%, 251 min (head r41)",2.766 rlu
same,Percent of Luminescence Remaining,"LucPpe2m146; LucPpe2m146, 0.5%, 251 min (times of Table I r41)",50.32%
